# Source: PMC7311396, “Ultra-large chemical libraries for the discovery of high-affinity peptide binders” (Nature Communications, 2020)
# Like-named read-outs stand apart in the source and are kept apart here. Non-standard residues stand in square brackets, D forms with d. Residues, ends and D or L forms follow the SMILES beside them. *: point of attachment. FITC = O=C1OC2(c3ccc(O)cc3Oc3cc(O)ccc32)c2ccc(NC(=S)*)cc21; Phe(4-NO2) = N[C@@H](Cc1ccc([N+](=O)[O-])cc1)C(=O)O; Ala(4-thiazolyl) = N[C@@H](Cc1cscn1)C(=O)O; β3hT = C[C@@H](O)[C@H](N)CC(=O)O; pS = N[C@@H](COP(=O)(O)O)C(=O)O; Aad = N[C@@H](CCCC(=O)O)C(=O)O; Cha = N[C@@H](CC1CCCCC1)C(=O)O; β3hS = N[C@@H](CO)CC(=O)O; Orn = NCCC[C@H](N)C(=O)O; Nva = CCC[C@H](N)C(=O)O; βAla = NCCC(=O)O
# Experiments:
# 14-3-3γ [1] = target: T1, 14-3-3γ (Homo sapiens, UniProt P61981); test: Fluorescence anisotropy competition assay with FITC-labeled BiExoS; type: binding
# T1 construct: Full-length human 14-3-3γ was expressed by transforming pROEX HTb plasmid; His6; made in house; host or cells: Rosetta(DE3) Escherichia coli
# T1 sequence (P61981 1-247): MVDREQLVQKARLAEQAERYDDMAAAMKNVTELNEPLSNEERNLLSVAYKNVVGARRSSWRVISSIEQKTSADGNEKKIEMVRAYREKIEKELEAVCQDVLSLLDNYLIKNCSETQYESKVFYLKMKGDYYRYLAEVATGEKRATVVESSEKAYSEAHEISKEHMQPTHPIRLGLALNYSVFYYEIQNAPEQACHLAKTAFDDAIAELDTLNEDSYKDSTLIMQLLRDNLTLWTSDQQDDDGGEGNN
# Experimental: All fluorescence anisotropy competition experiments were conducted in FA buffer (10 mM HEPES pH 7.4, 150 mM NaCl, 0.1% (v/v) Tween-20, 0.1% (w/v) BSA). A 1:1 dilution series of unlabeled peptides (starting at 10 μM) were performed in wells containing a fixed concentration FITC-labeled biExoS (10 nM) and 14-3-3γ (20 nM). Measurements were performed at ambient temperature using a Tecan Infinite F500 plate reader with the following parameters: λex = 485 (20) nm; λem = 535 (25) nm, mirror: Dichroic = 510, flashes: 20; integration time: 50 μs; settle time: 0 μs; gain: manual 90; and Z-position: calculated from well. The G-factor was set at 35 mP based on wells containing only the FITC-labeled peptide.
# Competition fluorescence anisotropy binding assay of 14-3-3γ-binding peptides:
# All fluorescence anisotropy affinity measurements were conducted in FA buffer (10 mM HEPES pH 7.4, 150 mM NaCl, 0.1% (v/v) Tween-20, 0.1% (w/v) BSA). During each assay a 1:1 dilution series (starting at 10 μM) of unlabeled peptides were made in wells containing a fixed concentration FITC-labeled biExoS (10 nM; FITC-O1Pen- […]
# […](GGSGGGGSGG)[…]-CONH2)5, and 14-3-3γ (20 nM).
# This is done in polystyrene non -binding low-volume Corning Black Round Bottom 384 - well plates (Corning 4514). Measurements were performed at ambient temperature using a Tecan Infinite F500 plate reader with the following parameters : λex = 485 (20) nm; λem = 535 (25) nm, mirror: Dichroic = 510, flashes: 20; integration time: 50 μs; settle time: 0 μs; gain: manual 90; and Z-position: calculated from well. The G-factor was set at 35 mP based on wells containing only the FITC-labeled peptide.
# 14-3-3γ [2] = target: T1, 14-3-3γ; test: Direct fluorescence anisotropy binding assay
# Experimental: (§1) All direct fluorescence anisotropy affinity measurements were conducted in FA buffer (10 mM HEPES pH 7.4, 150 mM NaCl, 0.1% (v/v) Tween 20, 0.1% (w/v) BSA). A 1:1 dilution series of 14-3-3γ (starting at 100 μM) was performed in polystyrene non-binding low-volume Corning Black Round Bottom 384-well plates (Corning 4514) containing a fixed concentration FITC-labeled peptide (10 nM or 50 nM). Measurements were performed at ambient temperature using a Tecan Infinite F500 plate reader with the following parameters: λex: 485 (20) nm; λem: 535 (25) nm; mirror: Dichroic 510; flashes: 20; integration time: 50 μs; settle time; 0 μs; gain: manual 90; Z-position: calculated from well. The G-factor was set at 35 mP based on wells containing only the FITC-labeled peptide.
# Fluorescence anisotropy binding assay of 14-3-3γ-binding peptides:
# as §1, with “All” for “All direct”, “BSA). During each assay a” for “BSA). A”, “series” for “series of 14-3-3γ”, “μM) of 14-3-3γ” for “μM)”, “was made in wells containing a fixed concentration FITC-labeled peptide (10 nM or 50 nM). This was done” for “was performed”, “(Corning 4514).” for “(Corning 4514) containing a fixed concentration FITC-labeled peptide (10 nM or 50 nM).”
# 14-3-3σΔc = target: T2, 14-3-3σΔc (Homo sapiens, UniProt P31947); test: Direct fluorescence anisotropy binding validation with 14-3-3σΔc; conditions: 14-3-3σ
# T2 construct: The 14-3-3σ isoform with a truncated C-terminus after T321; His6 (cleaved yes); made in house; host or cells: BL21(DE3) Escherichia coli
# T2 sequence (P31947 1-231 limits assumed): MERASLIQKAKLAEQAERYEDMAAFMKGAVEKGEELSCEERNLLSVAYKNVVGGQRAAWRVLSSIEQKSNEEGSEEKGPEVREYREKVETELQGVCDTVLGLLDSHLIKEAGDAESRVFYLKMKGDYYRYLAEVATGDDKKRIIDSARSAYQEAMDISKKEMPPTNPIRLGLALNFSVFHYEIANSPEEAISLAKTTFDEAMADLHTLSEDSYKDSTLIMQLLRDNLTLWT
# anti-HA mAb clone 12ca5 = test: Competition fluorescence polarization of HA epitope and analogues; type: binding; conditions: for effect of mutation on affinity towards 12ca5: competition FP of HA epitope Ala scan mutants; for IC50: competition FP, 100 nM 12ca5, 28 nM YPYDVPDYAK(FITC)-CONH2, 1 mg/mL BSA, 0.02% Tween 20, 1x PBS, RT, read after 1 h; for Kd: from competition FP, 100 nM 12ca5, 28 nM FITC tracer
# Experimental: Competition fluorescence polarization of HA epitope and analogues:
# Solutions of unlabeled peptides (~1 mg/mL each; Supplementary Table 1) in 1x PBS was prepared in the presence of 100 nM 12ca5, 1 mg/mL BSA, 0.02% Tween 20 (120 μL). Fluorescent competitor was added (YPYDVPDYAK(FITC)α-CONH2; 28 nM).
# The resulting solution was diluted serially (20 μL) into 100 nM 12ca5, 28 nM […]
# YPYDVPDYAK(FITC)α-CONH2, 1 mg/mL BSA, 0.02% Tween 20 in 1x PBS (80 μL; […]
# 5-fold dilutions). The resulting solutions were transferred to a 96 well plate (Greiner Bio- […]
# (RT), and read after 1 h on a Tecan Infinite M1000 plate reader (470 nm excitation; 517 nm detection; 5 nm bandwidth). The concentration of fluorescent […] was determined based on absorbance at 490 nm, using ε = 76,900 M-1cm-1.
# Competition fluorescence polarization of HA epitope Ala scan mutants:
# Competition fluorescence polarization experiments were carried out as described in Competition fluorescence polarization of HA epitope and analogues.
# [3] = FITC-labeled peptide (10 or 50 nM), 14-3-3γ dilution from 100 μM, FA buffer pH 7.4, ambient temperature, ± 95% confidence interval, read-out: KD
molecule,measurement,setting,value
CC(C)C[C@@H](N)C(=O)N[C@@H](Cc1ccc([N+](=O)[O-])cc1)C(=O)N[C@@H](CO)CC(=O)N[C@@H](Cc1ccc([N+](=O)[O-])cc1)C(=O)N[C@@H](COP(=O)(O)O)C(=O)N[C@@H](Cc1ccc([N+](=O)[O-])cc1)C(=O)N[C@@H](CO)CC(=O)NCCC(=O)N[C@@H](Cc1ccc([N+](=O)[O-])cc1)C(=O)N[C@@H](CCCCN)C(N)=O [14-3-3.1] (H-[dL][Phe(4-NO2)][β3hS][Phe(4-NO2)][pS][Phe(4-NO2)][β3hS][βAla][Phe(4-NO2)]K-NH2),IC50,14-3-3γ [1],465 ± 45 nM
same,Kd,"14-3-3γ [2]; KD, FITC-labeled peptide (10 or 50 nM), 14-3-3γ dilution from 100 μM, FA buffer pH 7.4, ambient temperature, ± 95% confidence interval",5.7 ± 1 nM
NCCCC[C@H](NC(=O)[C@H](Cc1ccc([N+](=O)[O-])cc1)NC(=O)C[C@H](CO)NC(=O)C[C@H](CO)NC(=O)[C@H](Cc1ccc([N+](=O)[O-])cc1)NC(=O)[C@H](COP(=O)(O)O)NC(=O)[C@H](CCCN)NC(=O)C[C@H](CO)NC(=O)[C@H](CC1CCCCC1)NC(=O)[C@@H](N)CC1CCCCC1)C(N)=O [14-3-3.6] (H-[Cha][Cha][β3hS][Orn][pS][Phe(4-NO2)][β3hS][β3hS][Phe(4-NO2)]K-NH2; N-terminus and C-terminus assumed),IC50,"14-3-3γ [1]; unlabeled peptide from 10 μM, 10 nM FITC-labeled biExoS, 20 nM 14-3-3γ, FA buffer pH 7.4, ambient temperature, read-out: IC50",77 ± 8 nM
same,Kd,14-3-3γ [2]; [3],3.1 ± 0.3 nM
CCC[C@H](NC(=O)[C@H](N)CCCCN)C(=O)N[C@@H](Cc1ccc([N+](=O)[O-])cc1)C(=O)N[C@@H](Cc1cscn1)C(=O)N[C@@H](COP(=O)(O)O)C(=O)N[C@@H](Cc1ccc([N+](=O)[O-])cc1)C(=O)N[C@@H](CO)CC(=O)NCCC(=O)N[C@@H](Cc1ccc([N+](=O)[O-])cc1)C(=O)N[C@@H](CCCCN)C(=O)NCCC(=O)N[C@@H](CCCCNC(=S)Nc1ccc2c(c1)C(=O)OC21c2ccc(O)cc2Oc2cc(O)ccc21)C(N)=O [FITC-labeled 14-3-3.12] (H-[dK][Nva][Phe(4-NO2)][Ala(4-thiazolyl)][pS][Phe(4-NO2)][β3hS][βAla][Phe(4-NO2)]K[βAla]K(FITC)-NH2),Kd,14-3-3σΔc; 0 h after incubation,229 nM
same,Kd,14-3-3σΔc; 4 h after incubation,169 nM
same,Kd,14-3-3σΔc; 20 h after incubation,102 nM
same,Kd,"14-3-3γ [2]; Kd, 14-3-3γ, 0 h after incubation",19.5 nM
same,Kd,"14-3-3γ [2]; Kd, 14-3-3γ, 4 h after incubation",19.4 nM
same,Kd,"14-3-3γ [2]; Kd, 14-3-3γ, 20 h after incubation",21.9 nM
C[C@@H](O)[C@@H](CC(=O)N[C@@H](CCCCN)C(N)=O)NC(=O)[C@H](Cc1ccc([N+](=O)[O-])cc1)NC(=O)[C@H](Cc1cscn1)NC(=O)[C@H](CCCC(=O)O)NC(=O)[C@H](COP(=O)(O)O)NC(=O)[C@H](Cc1cscn1)NC(=O)[C@@H](CCC(N)=O)NC(=O)C[C@H](CO)NC(=O)[C@H](N)CCCCN [NB.1] (H-[dK][β3hS][dQ][Ala(4-thiazolyl)][pS][Aad][Ala(4-thiazolyl)][Phe(4-NO2)][β3hT]K-NH2; N-terminus and C-terminus assumed),inhibitory activity (competition with BiExoS),"14-3-3γ [1]; unlabeled peptide, 10 nM FITC-labeled biExoS, 20 nM 14-3-3γ",no inhibitory activity
same,Kd,14-3-3γ [2]; [3],64000 ± 20000 nM
same,fold weaker binding than the 14-3-3γ-binding peptides,"14-3-3γ [2]; fluorescence anisotropy, FITC-labeled peptides","~ 10,000 fold"
CC(C)[C@H](NC(=O)[C@H](CC(=O)O)NC(=O)[C@H](Cc1ccc(O)cc1)NC(=O)[C@@H]1CCCN1C(=O)[C@@H](N)Cc1ccc(O)cc1)C(=O)N1CCC[C@H]1C(=O)N[C@@H](CC(=O)O)C(=O)N[C@@H](Cc1ccc(O)cc1)C(=O)NCC(N)=O [YPYDVPDYG] (H-YPYDVPDYG-NH2; N-terminus assumed),effect of mutation on affinity towards 12ca5,anti-HA mAb clone 12ca5,deleterious but did not completely abolish binding
same,IC50,anti-HA mAb clone 12ca5,3600 ± 1000 nM
same,Kd,anti-HA mAb clone 12ca5,170 ± 70 nM
"NC(=O)[C@@H](Cc1c[nH]cn1)NC(=O)[C@H]1CCCN1C(=O)[C@@H](CCC(=O)O)NC(=O)[C@@H](CC(=O)O)NC(=O)[C@@H](Cc1ccccc1)NC(=O)[C@@H](CCC(=O)O)NC(=O)[C@@H](Cc1ccc(O)cc1)NC(=O)[C@H]1CCCN1C(=O)[C@H](N)Cc1ccc(O)cc1 [ypyefdeph, reference compound] (H-[dY][dP][dY][dE][dF][dD][dE][dP][dH]-NH2)",IC50,anti-HA mAb clone 12ca5,380000 ± 25000 nM
same,Kd,anti-HA mAb clone 12ca5,18000 ± 4000 nM
YPYAVPDYAα-CONH2,effect of mutation on affinity towards 12ca5,anti-HA mAb clone 12ca5,deleterious but did not completely abolish binding
YPYDVPAYAα-CONH2,effect of mutation on affinity towards 12ca5,anti-HA mAb clone 12ca5,completed abrogated affinity
YPYDVPDAAα-CONH2,effect of mutation on affinity towards 12ca5,anti-HA mAb clone 12ca5,completed abrogated affinity
